Test results taken from patent US20090239840A1, “AMINO SUBSTITUTED DIARYL[a,d]CYCLOHEPTENE ANALOGS AS [sequence] AGONISTS AND METHODS OF TREATMENT OF NEUROPSYCHIATRIC DISORDERS” (ACADIA PHARMACEUTICALS, INC., priority 2003, published 2009).

Assays:
muscarinic M3 receptor = target: T1, muscarinic M3 receptor (Homo sapiens, UniProt P20309); assay: R-SAT functional screen, M3; format: cell-based
T1 construct: expressed in transfected cells
Text: The term “modulate” refers to the ability of a compound disclosed herein to alter the function of a muscarinic receptor. A modulator may activate the activity of a muscarinic receptor, may activate or inhibit the activity of a muscarinic receptor depending on the concentration of the compound exposed to the muscarinic receptor, or may inhibit the activity of a muscarinic receptor. The term “modulate” also refers to altering the function of a muscarinic receptor by increasing or decreasing the probability that a complex forms between a muscarinic receptor and a natural binding partner. A modulator may increase the probability that such a complex forms between the muscarinic receptor and the natural binding partner, may increase or decrease the probability that a complex forms between the muscarinic receptor and the natural binding partner depending on the concentration of the compound exposed to the muscarinic receptor, and or may decrease the probability that a complex forms between the muscarinic receptor and the natural binding partner. In some embodiments, modulation of the muscarinic receptor may be assessed using Receptor Selection and Amplification Technology (R-SAT) as described in U.S. Pat. No. 5,707,798, the disclosure of which is incorporated herein by reference in its entirety.
Several compounds disclosed herein were evaluated for activity at muscarinic receptors using Receptor Selection and Amplification Technology (R-SAT) as described in U.S. Pat. No. 5,707,798, the disclosure of which is incorporated herein by reference in its entirety. The efficacy (eff) and potency (expressed as pEC50) of these compounds are presented in Table 1 at M1, M2, and M3 receptors.

CYP 2C9 = CYP 2C9 (Homo sapiens, UniProt P11712); assay: CYP inhibition, 2C9; format: in vitro ADME
Sequence of CYP 2C9 (P11712 whole entry): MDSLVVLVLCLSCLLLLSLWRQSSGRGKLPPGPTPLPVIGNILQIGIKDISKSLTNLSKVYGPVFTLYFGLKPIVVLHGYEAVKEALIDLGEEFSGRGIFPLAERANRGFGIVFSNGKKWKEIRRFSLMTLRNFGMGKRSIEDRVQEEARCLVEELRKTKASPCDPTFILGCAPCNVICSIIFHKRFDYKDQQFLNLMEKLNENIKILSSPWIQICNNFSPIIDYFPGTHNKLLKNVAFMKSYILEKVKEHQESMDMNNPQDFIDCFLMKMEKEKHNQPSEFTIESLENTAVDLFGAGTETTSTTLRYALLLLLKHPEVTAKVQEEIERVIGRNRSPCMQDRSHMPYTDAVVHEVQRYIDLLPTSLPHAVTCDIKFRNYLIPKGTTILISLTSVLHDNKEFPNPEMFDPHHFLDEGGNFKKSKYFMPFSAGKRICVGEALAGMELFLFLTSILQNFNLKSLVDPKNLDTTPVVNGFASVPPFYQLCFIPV

novel object recognition = assay: Novel object recognition (NOR) assay; format: in vivo; conditions: mice; for NOR - 60 minutes post training / NOR - 120 minutes post training: dose approx. ID75 in MK-801 hyperactivity assay
Procedure: Salts of the compounds were administered to mice at one hour post-training (a time-point at which animals normally behaviorally discriminate between novel and familiar objects) and two hours post-training (a time-point at which these animals normally no longer discriminate between objects). Doses were selected to correspond to the approximate ID75 value in the MK-801 hyperactivity assay.

CYP 3A4 = CYP 3A4 (Homo sapiens, UniProt P08684); assay: biochemical
Sequence of CYP 3A4 (P08684 whole entry): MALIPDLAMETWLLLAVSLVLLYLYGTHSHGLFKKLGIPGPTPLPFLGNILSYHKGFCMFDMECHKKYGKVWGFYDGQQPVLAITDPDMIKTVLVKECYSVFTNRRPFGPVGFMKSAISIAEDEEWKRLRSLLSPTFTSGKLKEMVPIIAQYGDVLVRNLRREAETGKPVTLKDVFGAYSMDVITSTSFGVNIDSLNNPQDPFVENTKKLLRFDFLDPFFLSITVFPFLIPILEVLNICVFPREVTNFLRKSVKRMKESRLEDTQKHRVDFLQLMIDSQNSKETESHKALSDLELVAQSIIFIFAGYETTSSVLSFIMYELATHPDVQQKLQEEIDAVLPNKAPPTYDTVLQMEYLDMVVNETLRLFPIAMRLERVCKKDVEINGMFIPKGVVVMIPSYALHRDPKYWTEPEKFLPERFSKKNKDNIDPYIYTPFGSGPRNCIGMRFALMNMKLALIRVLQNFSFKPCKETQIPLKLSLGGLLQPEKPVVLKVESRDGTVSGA
Procedure: The compounds listed in Table 4 were profiled in a panel of in vitro assays for assessment of cardiovascular (hERG), drug-drug interaction (CYP inhibition), and mutagenic (Ames) liability. Microsomal stability was also determined by measuring both rat and human microsomal clearance.

muscarinic M2 receptor = target: T2, muscarinic M2 receptor (Homo sapiens, UniProt P08172); assay: R-SAT functional screen, M2; format: cell-based; conditions: R-SAT; for Emax: read-out: M2 eff (efficacy); for EC50: read-out: M2 pEC50 (converted)
T2 construct: expressed in transfected cells
T2 sequence (P08172 1-466): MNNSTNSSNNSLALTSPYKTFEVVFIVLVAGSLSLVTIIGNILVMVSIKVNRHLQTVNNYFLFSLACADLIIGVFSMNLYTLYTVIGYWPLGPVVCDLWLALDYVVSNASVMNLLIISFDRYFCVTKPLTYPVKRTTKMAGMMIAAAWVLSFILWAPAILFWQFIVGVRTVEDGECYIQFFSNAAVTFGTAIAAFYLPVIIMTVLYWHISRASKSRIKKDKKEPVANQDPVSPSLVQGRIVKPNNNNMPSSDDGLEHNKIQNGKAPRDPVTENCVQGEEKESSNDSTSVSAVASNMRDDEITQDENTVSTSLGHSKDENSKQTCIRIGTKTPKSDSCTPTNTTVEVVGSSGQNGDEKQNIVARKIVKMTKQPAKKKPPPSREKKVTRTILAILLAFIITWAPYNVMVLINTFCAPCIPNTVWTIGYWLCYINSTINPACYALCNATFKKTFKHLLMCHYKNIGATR
How it was run: (§1)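 Receptor Selection and Amplification Technology (R-SAT) functional cell assay at M1, M2, M3 receptors. Values reported as efficacy (eff) and potency as pEC50.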

CYP 2D6 = CYP 2D6 (Homo sapiens, UniProt P10635); assay: CYP inhibition, 2D6; format: in vitro ADME
Sequence of CYP 2D6 (P10635 whole entry): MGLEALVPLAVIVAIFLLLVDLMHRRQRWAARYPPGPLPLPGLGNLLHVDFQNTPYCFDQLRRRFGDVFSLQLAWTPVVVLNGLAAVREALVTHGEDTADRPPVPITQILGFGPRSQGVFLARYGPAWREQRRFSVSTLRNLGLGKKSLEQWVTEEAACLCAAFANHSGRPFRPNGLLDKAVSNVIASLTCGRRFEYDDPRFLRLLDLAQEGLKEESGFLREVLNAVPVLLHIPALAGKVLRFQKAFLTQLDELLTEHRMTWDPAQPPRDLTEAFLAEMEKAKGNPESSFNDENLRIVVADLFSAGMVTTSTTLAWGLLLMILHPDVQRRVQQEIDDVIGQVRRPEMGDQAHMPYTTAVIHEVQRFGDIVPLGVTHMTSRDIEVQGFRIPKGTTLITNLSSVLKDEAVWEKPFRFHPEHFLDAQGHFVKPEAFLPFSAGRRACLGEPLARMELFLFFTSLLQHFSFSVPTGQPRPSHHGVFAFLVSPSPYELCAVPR

CYP 2C19 = CYP 2C19 (Homo sapiens, UniProt P33261); assay: CYP inhibition, 2C19; format: in vitro ADME
Sequence of CYP 2C19 (P33261 whole entry): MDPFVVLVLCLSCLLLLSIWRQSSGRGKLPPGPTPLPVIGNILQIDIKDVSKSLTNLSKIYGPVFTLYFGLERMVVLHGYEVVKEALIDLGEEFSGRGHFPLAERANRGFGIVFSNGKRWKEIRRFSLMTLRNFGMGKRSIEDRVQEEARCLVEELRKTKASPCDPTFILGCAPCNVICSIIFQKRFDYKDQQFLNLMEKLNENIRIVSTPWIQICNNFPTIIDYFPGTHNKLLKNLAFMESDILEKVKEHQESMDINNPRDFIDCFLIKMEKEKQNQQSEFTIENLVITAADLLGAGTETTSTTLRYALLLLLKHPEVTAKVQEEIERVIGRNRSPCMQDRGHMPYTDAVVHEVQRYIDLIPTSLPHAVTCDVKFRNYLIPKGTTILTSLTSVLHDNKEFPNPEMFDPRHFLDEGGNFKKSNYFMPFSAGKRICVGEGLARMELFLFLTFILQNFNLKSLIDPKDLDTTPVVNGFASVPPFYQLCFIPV

D2 receptor = D2 receptor (Homo sapiens, UniProt P14416); assay: Receptor profile, D2 agonist activity; conditions: for Emax: read-out: D2 intrinsic activity %; for D2 intrinsic activity, in words: devoid of agonist activity
Sequence of D2 receptor (P14416 whole entry): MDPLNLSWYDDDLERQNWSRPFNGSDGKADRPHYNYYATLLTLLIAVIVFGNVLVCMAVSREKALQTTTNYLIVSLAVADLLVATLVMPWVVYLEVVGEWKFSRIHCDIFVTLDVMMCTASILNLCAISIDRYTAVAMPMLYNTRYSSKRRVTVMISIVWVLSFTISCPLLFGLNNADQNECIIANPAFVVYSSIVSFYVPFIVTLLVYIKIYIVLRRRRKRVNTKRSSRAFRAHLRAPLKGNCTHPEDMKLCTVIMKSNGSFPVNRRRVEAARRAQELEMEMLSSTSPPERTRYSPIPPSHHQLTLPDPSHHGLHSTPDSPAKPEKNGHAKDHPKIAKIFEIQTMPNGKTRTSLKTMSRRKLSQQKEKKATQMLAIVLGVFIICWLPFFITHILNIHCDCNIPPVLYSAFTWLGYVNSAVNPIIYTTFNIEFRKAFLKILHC
Text: (§3) Intrinsic activity was normalized to carbachol (M1) or pergolide (D2). For those ligands devoid of agonist activity, the values shown are pKi determined using [3H]raclopride.

5-HT2A receptor = 5-HT2A receptor (Homo sapiens, UniProt P28223); assay: Receptor profile, 5-HT2A inverse agonism; format: cell-based; conditions: negative log of the inhibitory IC50 (inverse agonism); read-out: 5-HT2A pIEC50 (converted)
Sequence of 5-HT2A receptor (P28223 whole entry): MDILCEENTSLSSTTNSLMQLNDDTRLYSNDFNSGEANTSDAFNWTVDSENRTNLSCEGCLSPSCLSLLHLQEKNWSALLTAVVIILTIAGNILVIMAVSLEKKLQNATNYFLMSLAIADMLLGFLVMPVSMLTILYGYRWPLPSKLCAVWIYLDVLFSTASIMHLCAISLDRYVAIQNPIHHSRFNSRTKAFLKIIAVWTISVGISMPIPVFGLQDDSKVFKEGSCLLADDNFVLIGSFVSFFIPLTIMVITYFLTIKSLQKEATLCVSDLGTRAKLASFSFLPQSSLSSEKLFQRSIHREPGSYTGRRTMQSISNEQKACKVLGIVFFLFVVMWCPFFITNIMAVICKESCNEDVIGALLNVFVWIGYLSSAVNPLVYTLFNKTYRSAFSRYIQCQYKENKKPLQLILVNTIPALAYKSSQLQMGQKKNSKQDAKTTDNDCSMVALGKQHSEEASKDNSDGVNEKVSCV

[1] = system: hyperactivity induced by amphetamine; assay: Amphetamine induced hyperactivity mouse model; format: in vivo; conditions: mice, salts of the compounds
Procedure: (§2) Five of the compounds listed in Table 2 were tested in an in vivo assay predictive of antipsychotic activity. Salts of these compounds where administered to mice having hyperactivity induced by amphetamine or MK-801 administration. The compounds were administered both subcutaneously (sc) and orally (po).

hERG = hERG (Homo sapiens, UniProt Q12809); assay: hERG assay
Sequence of hERG (Q12809 whole entry): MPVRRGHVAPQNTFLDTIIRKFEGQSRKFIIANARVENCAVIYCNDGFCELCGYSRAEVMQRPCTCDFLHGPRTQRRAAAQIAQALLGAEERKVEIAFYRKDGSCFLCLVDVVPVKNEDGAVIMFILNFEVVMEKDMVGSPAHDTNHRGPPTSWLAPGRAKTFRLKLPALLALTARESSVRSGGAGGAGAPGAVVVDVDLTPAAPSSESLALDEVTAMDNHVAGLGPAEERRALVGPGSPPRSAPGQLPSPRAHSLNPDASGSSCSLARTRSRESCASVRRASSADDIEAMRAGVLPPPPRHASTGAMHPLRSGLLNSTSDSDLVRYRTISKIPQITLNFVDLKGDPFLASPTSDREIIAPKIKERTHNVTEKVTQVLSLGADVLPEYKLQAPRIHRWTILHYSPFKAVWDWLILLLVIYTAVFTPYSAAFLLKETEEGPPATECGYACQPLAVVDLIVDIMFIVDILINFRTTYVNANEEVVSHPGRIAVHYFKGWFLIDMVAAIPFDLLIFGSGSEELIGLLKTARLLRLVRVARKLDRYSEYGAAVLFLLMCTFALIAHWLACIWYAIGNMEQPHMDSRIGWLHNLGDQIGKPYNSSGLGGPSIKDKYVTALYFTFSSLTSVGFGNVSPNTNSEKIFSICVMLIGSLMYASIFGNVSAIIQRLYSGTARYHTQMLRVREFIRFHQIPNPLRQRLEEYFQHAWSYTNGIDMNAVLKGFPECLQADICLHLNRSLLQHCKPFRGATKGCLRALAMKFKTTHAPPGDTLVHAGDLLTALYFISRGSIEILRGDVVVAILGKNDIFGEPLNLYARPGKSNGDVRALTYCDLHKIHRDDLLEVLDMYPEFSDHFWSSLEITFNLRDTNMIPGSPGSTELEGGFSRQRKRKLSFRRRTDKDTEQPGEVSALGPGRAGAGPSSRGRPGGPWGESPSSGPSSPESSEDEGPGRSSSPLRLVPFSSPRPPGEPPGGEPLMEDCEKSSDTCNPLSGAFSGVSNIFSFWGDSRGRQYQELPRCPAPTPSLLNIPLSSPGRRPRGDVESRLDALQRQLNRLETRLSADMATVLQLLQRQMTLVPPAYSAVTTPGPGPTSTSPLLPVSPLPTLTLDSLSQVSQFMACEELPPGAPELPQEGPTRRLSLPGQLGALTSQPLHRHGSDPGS

muscarinic M1 receptor = target: T3, muscarinic M1 receptor (Homo sapiens, UniProt P11229); assay: R-SAT functional screen, M1; format: cell-based; conditions: R-SAT
T3 construct: expressed in transfected cells
T3 sequence (P11229 1-460): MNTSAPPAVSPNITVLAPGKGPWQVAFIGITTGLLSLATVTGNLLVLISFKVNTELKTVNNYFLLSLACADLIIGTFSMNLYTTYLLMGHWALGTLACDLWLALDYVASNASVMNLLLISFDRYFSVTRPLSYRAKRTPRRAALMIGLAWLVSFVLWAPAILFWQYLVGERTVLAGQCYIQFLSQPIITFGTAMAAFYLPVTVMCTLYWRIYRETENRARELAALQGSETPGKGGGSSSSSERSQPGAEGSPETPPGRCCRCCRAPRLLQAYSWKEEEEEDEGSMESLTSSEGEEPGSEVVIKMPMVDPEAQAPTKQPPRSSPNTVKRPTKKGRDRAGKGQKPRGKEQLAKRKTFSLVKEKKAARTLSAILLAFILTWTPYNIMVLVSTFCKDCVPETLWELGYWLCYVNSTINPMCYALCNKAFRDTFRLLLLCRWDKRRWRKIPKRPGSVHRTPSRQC
How it was run: as §1

[2] = system: hyperactivity induced by MK-801; assay: MK-801 induced hyperactivity mouse model; format: in vivo; conditions: mice, salts of the compounds
Procedure: as §2

Ames mutagenesis assay = format: cell-based
CYP 1A2 = target: T4, CYP 1A2 (Homo sapiens, UniProt P05177); assay: CYP inhibition, 1A2; format: in vitro ADME
T4 sequence (P05177 1-516): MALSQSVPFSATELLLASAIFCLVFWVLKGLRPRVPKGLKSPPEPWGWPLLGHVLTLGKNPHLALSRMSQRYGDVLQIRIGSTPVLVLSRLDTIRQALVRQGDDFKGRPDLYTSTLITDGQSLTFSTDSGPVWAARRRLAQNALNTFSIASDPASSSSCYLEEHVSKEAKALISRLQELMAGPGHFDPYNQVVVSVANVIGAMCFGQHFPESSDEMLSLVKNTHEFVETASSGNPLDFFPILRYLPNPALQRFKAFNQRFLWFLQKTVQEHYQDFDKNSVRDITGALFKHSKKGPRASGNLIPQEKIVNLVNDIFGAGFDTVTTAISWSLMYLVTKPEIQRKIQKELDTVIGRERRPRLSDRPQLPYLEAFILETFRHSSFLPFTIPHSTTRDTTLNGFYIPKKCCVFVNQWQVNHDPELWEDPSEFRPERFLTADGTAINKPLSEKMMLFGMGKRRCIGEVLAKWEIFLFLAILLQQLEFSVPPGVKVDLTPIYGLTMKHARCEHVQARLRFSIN

M1 receptor = target: T5, M1 receptor (Homo sapiens, UniProt P11229); assay: Receptor profile, M1 agonist activity; conditions: for Emax: read-out: M1 intrinsic activity %
T5 sequence (P11229 1-460): T3 sequence (P11229 1-460)
Text: as §3

Rat microsomal clearance = format: in vitro ADME; conditions: rat microsomes
[3] = Human microsomal clearance; format: in vitro ADME; conditions: human microsomes
[4] = to 10 μM (cytotoxicity precluded evaluation of all concentrations)

T1 sequence (P20309 whole entry): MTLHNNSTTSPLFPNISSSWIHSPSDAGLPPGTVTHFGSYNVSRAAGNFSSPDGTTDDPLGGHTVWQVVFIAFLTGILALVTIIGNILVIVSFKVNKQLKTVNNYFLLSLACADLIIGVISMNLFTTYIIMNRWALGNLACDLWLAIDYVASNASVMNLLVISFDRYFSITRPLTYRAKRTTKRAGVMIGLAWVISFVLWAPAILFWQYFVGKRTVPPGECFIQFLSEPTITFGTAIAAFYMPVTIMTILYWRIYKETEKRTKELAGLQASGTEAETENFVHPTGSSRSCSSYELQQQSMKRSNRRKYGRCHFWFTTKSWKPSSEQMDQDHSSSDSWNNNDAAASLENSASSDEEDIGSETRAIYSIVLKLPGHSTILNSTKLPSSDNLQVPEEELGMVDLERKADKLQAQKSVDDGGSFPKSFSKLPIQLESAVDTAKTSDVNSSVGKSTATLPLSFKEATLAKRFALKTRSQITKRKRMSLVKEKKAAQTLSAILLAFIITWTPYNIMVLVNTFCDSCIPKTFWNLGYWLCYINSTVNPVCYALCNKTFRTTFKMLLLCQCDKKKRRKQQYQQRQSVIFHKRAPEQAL

Structure (SMILES) | IC50 (CYP 2C9) [nM] | NOR Interpretation (novel object recognition) | NOR - 60 minutes post training (novel object recognition) | NOR - 120 minutes post training (novel object recognition) | IC50 (CYP 3A4) [nM] | Emax (muscarinic M2 receptor) [%] | EC50 (muscarinic M2 receptor) [nM] | IC50 (CYP 2D6) [nM] | IC50 (CYP 2C19) [nM] | IC50 (5-HT2A receptor) [nM] | Amphetamine model (ID50 mg/kg po) [1] [mg/kg] | Amphetamine model (ID50 mg/kg sc) [1] [mg/kg] | IC50 (hERG) [nM] | MK-801 model (ID50 mg/kg sc) [2] [mg/kg] | Ames (Ames mutagenesis assay; [4]) | IC50 (CYP 1A2) [nM] | EC50 (M1 receptor) [nM] | Emax (M1 receptor) [%] | microsomal CLint (Rat microsomal clearance) [µL/min/mg] | microsomal CLint [3] [µL/min/mg] | further results
CN1c2ccc(Cl)cc2N=C(N2CCNCC2)c2ccccc21 [8-Chloro-5-methyl-11-(piperazin-1-yl)-5H-dibenzo[b,e][1,4]diazepine] | > 10000 | no effect | retained | not retained | 400 | 138 | 1260 | > 10000 | > 10000 | > 10000 | >10 | 6.0 | 1300 | 1.5 | Neg. | > 10000 | 79.4 | 65 | 1090 | 23 | M3 eff (efficacy) (muscarinic M3 receptor): 14; EC50 (D2 receptor): 15.8 nM; Emax (D2 receptor): 29%; Emax (muscarinic M1 receptor; read-out: M1 eff (efficacy)): 65%; EC50 (muscarinic M1 receptor; read-out: M1 pEC50 (converted)): 79.4 nM
Clc1ccc2c(c1)N=C(N1CCNCC1)c1ccccc1C2 [3-Chloro-6-piperazin-1-yl-11H-dibenzo[b,e]azepine] | > 10000 | no effect | retained | not retained | ~4000 | 113 | 1260 | > 10000 | > 10000 | 31.6 | 2.8 | 3.6 | 1200 | 0.7 | Neg. | > 10000 | 100 | 62 | 383 | 21 | EC50 (D2 receptor): 12.6 nM; Emax (D2 receptor): 33%; MK-801 model (ID50 mg/kg po) [2]: 1.6 mg/kg
Cc1cccc2c1Oc1ccc(F)cc1N=C2N1CCNCC1 [8-Fluoro-4-methyl-11-(piperazin-1-yl)-dibenzo[b,f][1,4]oxazepine] | > 25000 | procognitive | retained | retained | ~1500 | 50 | 1580 | > 25000 | > 25000 | 126 | 2.8 | 3.3 | 2300 | 1.4 | Neg. | 1000 | 126 | 56 | 247 | 13 | D2 intrinsic activity, in words (D2 receptor): antagonist; MK-801 model (ID50 mg/kg po) [2]: 0.6 mg/kg
Cc1cccc2c1Oc1ccc(Cl)cc1N=C2N1CCNCC1 [8-Chloro-4-methyl-11-(piperazin-1-yl)-dibenzo[b,f][1,4]oxazepine] | > 10000 | procognitive | retained | retained | 1800 | 71 | 631 | > 10000 | > 10000 | 31.6 | >10 | 3.4 | 2000 | 0.5 |  | 1800 | 200 | 71 | 27 | 16 | D2 intrinsic activity, in words (D2 receptor): antagonist; MK-801 model (ID50 mg/kg po) [2]: 1.9 mg/kg; Ames (Ames mutagenesis assay; to 5 μM (cytotoxicity precluded evaluation of all concentrations)): Neg.
